Structures are written as SMILES. Where two headings read alike, the source gives them in different places.

The target of one experiment is T1, human CB2 receptor (Homo sapiens, UniProt P34972).
T1 construct: expressed in transfected cells; host or cells: human embryonic kidney (HEK) cells, Semliki Forest Virus system, membrane preparations
The experiment in a line: CB2 receptor affinity ([3H]-CP-55,940 displacement, HEK cell membranes). The format is binding. To be noted: displacement of [3H]-CP-55,940 at 10 μM. The protocol: The affinity of the compounds of the invention for cannabinoid CB2 receptors was determined using membrane preparations of human embryonic kidney (HEK) cells in which the human CB2 receptor is transiently transfected using a Semliki Forest Virus system in conjunction with [^3H]-CP-55,940 as radioligand. After incubation of freshly prepared cell membrane preparation with the [^3H]-ligand, with or without addition of compounds of the invention, separation of bound and free ligand was performed by filtration over glass fiber filters. Radioactivity on the filter was measured by scintillation counting.
(§1) The ability of the compounds to displace the radioligand [^3H]-CP-55,940 was measured at a concentration of 10 μM and values provided as [% inhibition @ 10 μM] both for the CB1 and CB2 receptor assay, The lower % inhibition is, the lower the likelihood of side effects based on CB1 or CB2 receptor inhibition is.

The target in another experiment is T2, human CB1 receptor (Homo sapiens, UniProt P21554).
T2 construct: expressed in transfected cells; host or cells: human embryonic kidney (HEK) cells, Semliki Forest Virus system, membrane preparations
The experiment in a line: CB1 receptor affinity ([3H]-CP-55,940 displacement, HEK cell membranes). It counts as binding. The note with it: read-out: CB1 receptor affinity [% inhibition @ 10 μM]. The protocol:
The affinity of the compounds of the invention for cannabinoid receptors was determined using membrane preparations of human embryonic kidney (HEK) cells in which the human CB1 receptor is transiently transfected using a Semliki Forest Virus system in conjunction with [3H]-CP-55,940 as radioligand. After incubation of freshly prepared cell membrane preparation with the [^3H]-ligand, with or without addition of compounds of the invention, separation of bound and free ligand was performed by filtration over glass fiber filters. Radioactivity on the filter was measured by scintillation counting.
as §1

The next experiment relates to ABCA1 protein. The experiment in a line: Detection of upregulation of ABCA1 protein in cells (ApoA-I binding, high content imaging). It counts as cell-based. To be noted: THP-1 macrophage cells; for % increase of ABCA1 at 3 μM: compound at 3 μM, 24 hrs; for EC50: 24 hrs compound incubation, read-out: EC50 [μM] ABCA1 protein increasing efficacy. The protocol: The ability of compounds of the invention to increase the level of ABCA1 protein is determined in replicate cultures of THP-1 macrophage cells in 96-well microplates. Cells are plated at an initial density of 100,000 cells/well in 100 μl medium and differentiated to adherent macrophages with the addition of PMA (100 nM) for 68 hrs in 10% fetal bovine serum, 3 μl/L of b-mercaptoethanol, RPMI-1640 medium. Then, cells are incubated with RPMI-1640 medium containing 1% FCS, 25 μg/ml acetylated LDL, for 24 hours at 37° C. Following incubation with acetylated LDL, cells are washed twice with 50 μl PBS and incubated with 100 μl of RPMI-1640 medium containing the compound of interest solubilized in DMSO for an additional 24 hrs. The final DMSO concentration in presence of cells is maintained at 0.5%. ApoA-I binding assay using High Content Image Analysis is initiated by replacing with fresh medium, RPMI without Phenol Red, 0.2% BSA containing AlexaFluor®647 labeled ApoA-I for 2 h/37° C./5% CO2. Then, cells are fixed with 4% Formaldehyde in PBS (15 min, RT). Following Nuclei are stained with Hoechst solution (3 μM PBS) and Cytoplasm with Cell Mask Blue (2 μg/ml PBS), 15 min, RT. Finally the stained cells are fixed with a second round of formaldehyde treatment. Fixed stained cells are washed and kept in PBS at 4° C. and can be read immediately until one month after preparation.
The Alexa Fluor 647-labeled Apolipoprotein A-I (20 nM) was prepared as follows: Human recombinant Apolipoprotein A-I (ApoA-I) was exchanged to a buffer of 0.02 M NaHCO3 at pH 8.2 on an NAP desalting column (GE Healthcare) and brought to a concentration to 40 μM (1.13 mg/ml) by adjustment with the same buffer. The ApoA-I was fluorescently labeled by incubation with Alexa Fluor carboxylic acid succimidyl ester (Alexa Fluor 647, Invitrogen A-20006) at a 2:1 molar ratio (Alexa to ApoA-I) for 1 h under shaking at RT. The remaining unconjugated label was removed by buffer exchange to 0.02M NaHCO3 at pH 8.2.
Imaging and data collection were performed on an OPERA confocal microplate imaging reader using a 20× water immersion objective and UV360 or 405 laser to identify the cell nuclei and a 635 laser to identify the fluorescent ApoA-I. Eight fields of view are captured per well. Image capture and analysis was performed with the Acapella software. Background fluorescence detected in control wells without ApoA-I was subtracted.
Using XLfit3 program (ID Business Solutions Ltd. UK), the model 205 for Dose Response One Site is used to calculate the EC50 values. […] More particularly, the compounds of the present invention have EC50 values in a range of 0.1 μM to 3 μm.

[1] abbreviates: displacement of [3H]-CP-55,940 at 10 μM.

T2 sequence (P21554 whole entry): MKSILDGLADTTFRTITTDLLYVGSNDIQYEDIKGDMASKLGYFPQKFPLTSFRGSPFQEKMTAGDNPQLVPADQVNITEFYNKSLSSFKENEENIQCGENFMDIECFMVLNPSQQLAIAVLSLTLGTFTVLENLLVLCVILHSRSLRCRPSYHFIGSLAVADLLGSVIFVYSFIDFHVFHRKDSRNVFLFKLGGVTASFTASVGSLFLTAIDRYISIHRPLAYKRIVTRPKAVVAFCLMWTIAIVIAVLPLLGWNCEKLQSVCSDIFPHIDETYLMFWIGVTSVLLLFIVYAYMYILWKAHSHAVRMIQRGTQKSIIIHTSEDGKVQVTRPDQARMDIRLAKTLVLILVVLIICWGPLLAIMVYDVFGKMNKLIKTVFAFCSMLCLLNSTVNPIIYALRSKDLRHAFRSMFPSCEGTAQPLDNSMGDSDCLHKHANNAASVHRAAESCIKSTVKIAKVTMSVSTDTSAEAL
T1 sequence (P34972 whole entry): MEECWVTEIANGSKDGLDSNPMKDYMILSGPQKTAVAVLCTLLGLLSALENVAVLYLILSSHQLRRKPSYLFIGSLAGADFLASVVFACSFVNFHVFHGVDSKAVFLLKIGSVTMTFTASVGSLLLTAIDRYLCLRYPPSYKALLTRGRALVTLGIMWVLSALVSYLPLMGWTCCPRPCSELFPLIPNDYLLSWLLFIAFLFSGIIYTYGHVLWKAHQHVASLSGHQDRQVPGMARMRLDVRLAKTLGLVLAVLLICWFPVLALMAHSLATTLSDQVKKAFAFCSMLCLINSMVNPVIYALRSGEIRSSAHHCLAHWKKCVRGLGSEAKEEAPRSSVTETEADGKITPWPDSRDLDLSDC

In the case of `O=C(NNCC(F)(F)F)c1cnc(OCC(F)(F)F)c(-c2ccc(Cl)cc2)c1` [Example 1, 5-(4-chlorophenyl)-6-(2,2,2-trifluoroethoxy)-N′-(2,2,2-trifluoroethyl)-3-pyridinecarboxylic acid hydrazide], the results for the inhibition at 10 µM on human CB2 receptor and on human CB1 receptor (setting [1]) were 10% and 42%, respectively. For the same compound, the “% increase of ABCA1 at 3 μM” value with ABCA1 protein is recorded as more than 45%@ 3 μM.
Taken in the same sequence, the figures for `O=C(NN1CCOCC1)c1cnc(OCC(F)(F)F)c(-c2ccc(Cl)cc2)c1` [Example 2, 5-(4-chlorophenyl)-N-morpholino-6-(2,2,2-trifluoroethoxy)-3-pyridinecarboxamide] were 8%, 43% and more than 45%@ 3 μM.
For `O=C(NN1CCS(=O)(=O)CC1)c1cnc(OCC(F)(F)F)c(-c2ccc(Cl)cc2)c1` [Example 3, 5-(4-chloro-phenyl)-N-(1,1-dioxido-4-thiomorpholinyl)-6-(2,2,2-trifluoro-ethoxy)-3-pyridinecarboxamide], the values for the inhibition at 10 µM on human CB2 receptor and at human CB1 receptor (setting [1]) were 7% and 39%, respectively. Besides, the “% increase of ABCA1 at 3 μM” value with ABCA1 protein is on record as more than 45%@ 3 μM.
In the same order, the values of `CC(C)(C)OC(=O)N1CCCN1C(=O)c1cnc(OCC(F)(F)F)c(-c2ccc(Cl)cc2)c1` [Example 4, t-butyl 2-[(5-(4-chlorophenyl)-6-(2,2,2-trifluoroethoxy)-3-pyridinyl)carbonyl]-pyrazolidine-1-carboxylate] are 24%, 40% and more than 45%@ 3 μM.
`CN(NC(=O)c1cnc(OCC(F)(F)F)c(-c2ccc(Cl)cc2)c1)c1ccccc1` [Example 5, 5-(4-chloro-phenyl)-6-(2,2,2-trifluoro-ethoxy)-3-pyridinecarboxylic acid N′-methyl-N′-phenyl-hydrazide]: the inhibition at 10 µM at human CB2 receptor was found to be 31%; on human CB1 receptor (setting [1]), 45%. Further, the “% increase of ABCA1 at 3 μM” value in the experiment on ABCA1 protein is on record as more than 45%@ 3 μM.
With `O=C(NN1CCC(O)CC1)c1cnc(OCC(F)(F)F)c(-c2ccc(Cl)cc2)c1` [Example 6, 5-(4-chlorophenyl)-N-(4-hydroxypiperidin-1-yl)-6-(2,2,2-trifluoroethoxy)-3-pyridinecarboxamide], the inhibition at 10 µM on human CB2 receptor was -9%; at human CB1 receptor, 11%. Further, the EC50 with ABCA1 protein worked out at 1.11 µM.
In the case of `O=C(NN1CC(CN2CCOCC2)OC1=O)c1cnc(OCC(F)(F)F)c(-c2ccc(Cl)cc2)c1` (stereo not drawn) [Example 7, 5-(4-chlorophenyl)-N-(5-(morpholinomethyl)-2-oxooxazolidin-3-yl)-6-(2,2,2-trifluoroethoxy)-3-pyridinecarboxamide], the values for the inhibition at 10 µM on human CB2 receptor and on human CB1 receptor (setting [1]) were -4% and 36%, respectively. In addition, the “% increase of ABCA1 at 3 μM” value in the experiment on ABCA1 protein is on record as more than 45%@ 3 μM.
As to `CN(NC(=O)c1cnc(OCC(F)(F)F)c(-c2ccc(Cl)cc2)c1)c1ccc(Cl)nn1` [Example 8, 5-(4-chlorophenyl)-N′-(6-chloropyridazin-3-yl)-N′-methyl-6-(2,2,2-trifluoroethoxy)-3-pyridinecarboxylic acid hydrazide], the inhibition at 10 µM came to 18% on human CB2 receptor and 38% at human CB1 receptor (setting [1]). Further, in the experiment with ABCA1 protein, the “% increase of ABCA1 at 3 μM” value is on record as more than 45%@ 3 μM.
As to `NNC(=O)c1cnc(OCC(F)(F)F)c(-c2ccc(Cl)c(F)c2)c1` [Example 9, 5-(4-chloro-3-fluorophenyl)-6-(2,2,2-trifluoroethoxy)-3-pyridinecarboxylic acid hydrazide], the inhibition at 10 µM on human CB2 receptor was -2%; at human CB1 receptor (setting [1]), 11%. The “% increase of ABCA1 at 3 μM” value in the experiment with ABCA1 protein is more than 45%@ 3 μM.
As for `O=C(NN1CCC(O)CC1)c1cnc(OCC2CC2)c(-c2ccc(Cl)cc2)c1` [Example 10, 5-(4-chlorophenyl)-6-(cyclopropylmethoxy)-N-(4-hydroxypiperidin-1-yl)-3-pyridinecarboxamide], the inhibition at 10 µM amounted to 2% on human CB2 receptor and 34% on human CB1 receptor (setting [1]). In the experiment on ABCA1 protein, the EC50 was 1.03 µM.
Taken in the same sequence, the figures for `O=C(NN1CCC(O)CC1)c1cnc(OC2CCC2)c(-c2ccc(Cl)cc2)c1` [Example 11, 5-(4-chlorophenyl)-6-cyclobutoxy-N-(4-hydroxypiperidin-1-yl)-3-pyridinecarboxamide] were -8%, 14% and 0.18 µM.
In the same order, the values of `O=C(NN1CCC(O)CC1)c1cnc(OCC(F)(F)F)c(C2CCCCC2)c1` [Example 12, 5-cyclohexyl-N-(4-hydroxypiperidin-1-yl)-6-(2,2,2-trifluoroethoxy)-3-pyridinecarboxamide] are 6%, 8% and 1.48 µM.
Regarding `CS(=O)(=O)N1CCN(NC(=O)c2cnc(OCC(F)(F)F)c(-c3ccc(Cl)cc3)c2)CC1` [Example 13, 5-(4-chlorophenyl)-N-(4-(methylsulfonyl)piperazin-1-yl)-6-(2,2,2-trifluoroethoxy)-3-pyridinecarboxamide], the inhibition at 10 µM on human CB2 receptor worked out at 1%; on human CB1 receptor (setting [1]) it was 23%. Moreover, the EC50 with ABCA1 protein worked out at 0.33 µM.
Regarding `O=C(NN1CCOCC1)c1cnc(OCC(F)(F)F)c(C2CCCC2)c1` [Example 14, 5-cyclopentyl-N-morpholino-6-(2,2,2-trifluoroethoxy)-3-pyridinecarboxamide], the inhibition at 10 µM at human CB2 receptor was 9%; at human CB1 receptor (setting [1]), 19%. Besides, in the experiment with ABCA1 protein, the EC50 was found to be 1.08 µM.
As for `O=C(NN1CCCC1=O)c1cnc(OCC(F)(F)F)c(C2CCCC2)c1` [Example 15, 5-cyclopentyl-N-(2-oxopyrrolidin-1-yl)-6-(2,2,2-trifluoroethoxy)-3-pyridinecarboxamide], the results for the inhibition at 10 µM on human CB2 receptor and at human CB1 receptor (setting [1]) were 12% and 13%, respectively. Besides, the “% increase of ABCA1 at 3 μM” value in the experiment on ABCA1 protein was more than 45%@ 3 μM.
Take `CN(NC(=O)c1cnc(OCC(F)(F)F)c(C2CCCC2)c1)c1ccc(Cl)nn1` [Example 16, N′-(6-chloropyridazin-3-yl)-5-cyclopentyl-N′-methyl-6-(2,2,2-trifluoroethoxy)-3-pyridinecarboxylic acid hydrazide]: the inhibition at 10 µM on human CB2 receptor is -5%; at human CB1 receptor (setting [1]) it was 21%. For the same compound, in the experiment with ABCA1 protein, the concentration giving a half-maximal response (EC50) is 1.17 µM.
Taken in the same sequence, the figures for `COC[C@@H]1CCCN1NC(=O)c1cnc(OCC(F)(F)F)c(C2CCCC2)c1` [Example 17, (S)-5-cyclopentyl-N-(2-(methoxymethyl)pyrrolidin-1-yl)-6-(2,2,2-trifluoroethoxy)-3-pyridinecarboxamide] were 3%, 33% and 0.12 µM.
Regarding `CN(NC(=O)c1cnc(OCC(F)(F)F)c(C2CCCC2)c1)c1ccccc1` [Example 18, 5-cyclopentyl-N′-methyl-N′-phenyl-6-(2,2,2-trifluoroethoxy)-3-pyridinecarboxylic acid hydrazide], the inhibition at 10 µM worked out at 18% on human CB2 receptor and 41% at human CB1 receptor (setting [1]). Also, the “% increase of ABCA1 at 3 μM” value in the experiment on ABCA1 protein is more than 45%@ 3 μM.

The record behind these values is patent publication US8648099B2 (Hoffmann-La Roche Inc., priority 2011, dated 2014).
